Measurements from patent US20230321044A1, “TREATMENT OR PREVENTION METHOD FOR CHRONIC HEART FAILURE” (Japan Tobacco Inc., priority 2020, published 2023).
“Also recorded” adds a separate entry of the source.

How the values were obtained:
[1] = test system: post-myocardial infarction heart failure rats; experiment: Assessment of cardiac function in rats with post-myocardial infarction heart failure (Test Example 1); type: in vivo, rat
Method: Male SD rats (8-week old, Japan SLC, Inc.) were anesthetized with pentobarbital, then, under controlled mechanical ventilation, underwent thoracotomy and permanent ligation of the left anterior descending coronary artery to prepare rats with post-myocardial infarction heart failure. A sham-operated group was prepared by undergoing only thoracotomy in the same way to expose the heart. Two weeks later, vehicle (0.5% methylcellulose solution) or Compound 1 (3 mg/kg group or Ascending Dose group) was orally administered once daily to the group of post-myocardial infarction heart failure rat, and the vehicle was orally administered once daily to the sham-operated group. The dose for the Ascending Dose group was started with 3 mg/kg, increased to 6 mg/kg after two weeks and to 8 mg/kg after two more weeks, and maintained at 8 mg/kg thereafter. After eight weeks of administration, an ultrasonograph (Aplio 300, Toshiba Medical Systems Corporation) was used to measure the left ventricular ejection fraction, and Catheter-tipped micromanometer (Model SPR-320, Millar Inc.) was inserted into the left ventricle via the left carotid artery to measure the left ventricular end-diastolic pressure. For statistical analysis, Aspin-Welch t test was conducted between the sham-operated vehicle-administered group and the vehicle-administered group of post-myocardial infarction heart failure rats. Steel’s multiple comparison test was conducted for the Compound 1 group to the vehicle group of post-myocardial infarction heart failure rats. The significance level was two-sided 5%. Form the results, it was confirmed that the vehicle-administered group of post-myocardial infarction heart failure rats developed HFrEF because the left ventricular ejection fraction was decreased and the left ventricular end-diastolic pressure was increased, compared with the sham-operated vehicle-administered group.

[2] = test system: hypertensive heart failure rats; experiment: Assessment of cardiac function in rats with hypertensive heart failure (Test Example 2); type: in vivo, rat
Method: Male DIS/Eis (Dahl-Iwai S) rats (Dahl rats) (7-week old, Japan SLC, Inc.) were fed a high-salt diet (MF 8% sodium chloride-adjusted feed, Oriental Yeast Co., ltd.) to prepare hypertensive heart failure rats. Normal controls were fed a normal diet (CRF-1 solid, Oriental Yeast Co., ltd.). Three weeks later, after confirmation of the development of pathological condition (hypertension or cardiomegaly), vehicle (0.5% methylcellulose solution) or Compound 1 (3 mg/kg group or Ascending Dose group) was orally administered to the hypertensive heart failure rat group once daily, and the vehicle was orally administered once daily to the normal control group. […] After five weeks of administration, an ultrasonograph (Aplio 300, Toshiba Medical Systems Corporation) was used to measure the left ventricular ejection fraction, and a non-invasive automated blood pressure measuring device (BP-98A, Softlon Co.,Ltd.) was used to measure the systolic blood pressure. After six weeks of administration, ADVantage P-V catheter (Model FTH-1918B-E318, Transonic Scisense Inc.) was inserted into the left ventricle from the apex to measure the left ventricular end-diastolic pressure. […] For statistical analysis, Student test or Aspin-Welch t test was conducted between the vehicle-administered normal control group and the vehicle-administered group of hypertensive heart failure rats. Dunnett’s multiple test was conducted for the Compound 1 group to the vehicle group of hypertensive heart failure rats. The significance level was two-sided 5%. Form the results, it was confirmed that the hypertensive heart failure rats developed HFpEF because the EDPVRβ and left ventricular end-diastolic pressure were increased whereas the left ventricular ejection fraction was not decreased, compared with the normal control group. […] Compound 1 also had no effect on the urine volume in the hypertensive heart failure rats.

## C[C@H]1C(=O)NC[C@@H]1C(=O)Nc1cc(-c2cc(F)cc(OC(C)(C)C)c2)n(C(F)(F)F)n1 [Compound 1]
[1]; 3 mg/kg group, oral once daily, eight weeks, vs vehicle, FIG. 2
  left ventricular ejection fraction: higher value
[1]; Ascending Dose group (3, then 6, then 8 mg/kg), oral once daily, eight weeks, vs vehicle, p < 0.05, FIG. 2
  left ventricular ejection fraction: significantly increased
[1]; dose groups not distinguished (3 mg/kg or Ascending Dose), oral once daily, eight weeks
  left ventricular ejection fraction: increased
[1]; post-myocardial infarction heart failure rats, oral once daily, eight weeks, in comparison with the vehicle, FIG. 1
  left ventricular end-diastolic pressure: lower value; also recorded: suppressed
[1]; post-myocardial infarction heart failure rats, overall conclusion
  HFrEF improving effect: improved HFrEF; also recorded: has an HFrEF improving effect
[2]; 3 mg/kg group, oral once daily, six weeks, vs vehicle, FIG. 4
  EDPVRβ (end-diastolic pressure-volume relationship β): lower value
[2]; Ascending Dose group (3, then 6, then 8 mg/kg), oral once daily, six weeks, vs vehicle, p < 0.05, FIG. 4
  EDPVRβ (end-diastolic pressure-volume relationship β): significantly reduced
[2]; dose groups not distinguished, oral once daily, six weeks
  EDPVRβ (end-diastolic pressure-volume relationship β): reduced
[2]; hypertensive heart failure (Dahl) rats, oral once daily, six weeks, vs vehicle, p < 0.05 and p < 0.01, FIG. 3
  left ventricular end-diastolic pressure: significantly reduced
[2]; hypertensive heart failure rats, after five weeks of administration, FIG. 6
  systolic blood pressure: had no effect
[2]; hypertensive heart failure rats, in comparison with the vehicle, FIG. 7
  urine volume: did not affect; also recorded: had no effect
[2]; hypertensive heart failure rats, overall conclusion
  HFpEF improving effect: has an HFpEF improving effect
